Results on 1 compound are retold here after PMC13415951 (Journal of Experimental Botany, 2026).

One assay addresses T1, HvUGT13248 (Hordeum vulgare subsp. vulgare, UniProt M0Y4P1).
T1 sequence (M0Y4P1 1-475): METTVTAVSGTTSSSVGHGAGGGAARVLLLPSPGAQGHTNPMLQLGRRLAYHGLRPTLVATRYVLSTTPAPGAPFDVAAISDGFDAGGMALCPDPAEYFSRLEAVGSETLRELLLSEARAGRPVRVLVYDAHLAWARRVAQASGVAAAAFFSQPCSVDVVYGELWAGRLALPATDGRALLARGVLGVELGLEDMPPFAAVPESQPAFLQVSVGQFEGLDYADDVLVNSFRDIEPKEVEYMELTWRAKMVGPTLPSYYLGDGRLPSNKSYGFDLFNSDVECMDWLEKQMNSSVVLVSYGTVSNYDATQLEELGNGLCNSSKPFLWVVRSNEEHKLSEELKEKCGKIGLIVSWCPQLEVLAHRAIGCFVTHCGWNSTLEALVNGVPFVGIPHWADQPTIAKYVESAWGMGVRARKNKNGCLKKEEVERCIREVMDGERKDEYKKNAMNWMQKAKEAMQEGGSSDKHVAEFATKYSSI
Nature of the assay: biochemical. The note with it: read-out: Glucosylation rate of DON, percentage of the control.

Assay [1] deals with T2, BdUGT5g03300 (Brachypodium distachyon, UniProt I1IW79).
T2 sequence (I1IW79 1-469): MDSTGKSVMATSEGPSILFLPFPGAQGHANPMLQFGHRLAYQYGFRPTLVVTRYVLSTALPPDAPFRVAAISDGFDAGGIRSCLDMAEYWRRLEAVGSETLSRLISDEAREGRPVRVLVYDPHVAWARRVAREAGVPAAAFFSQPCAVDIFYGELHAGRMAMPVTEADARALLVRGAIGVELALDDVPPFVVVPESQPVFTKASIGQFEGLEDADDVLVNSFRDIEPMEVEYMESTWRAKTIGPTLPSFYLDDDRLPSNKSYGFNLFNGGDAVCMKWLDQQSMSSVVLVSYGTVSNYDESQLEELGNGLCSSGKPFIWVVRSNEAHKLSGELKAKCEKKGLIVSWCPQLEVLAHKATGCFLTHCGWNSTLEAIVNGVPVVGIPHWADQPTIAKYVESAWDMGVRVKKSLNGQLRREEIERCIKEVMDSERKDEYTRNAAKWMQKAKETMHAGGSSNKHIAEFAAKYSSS
As to the kind of experiment: biochemical.

Assay [2] addresses T2, BdUGT5g03300. It counts as biochemical.
The mark [3] stands for this setting: read-out: Glucosylation rate of DON, percentage of the control.

The structures appear in SMILES notation. Some results are limits rather than exact numbers.

For the compound `CC1(C)CCC[C@]2(C)[C@@H]3[C@H]1[C@@H](O)[C@@]2(C)C[C@H]3O` [CUL, culmorin], on HvUGT13248, the remaining activity at 25 µM worked out at 59 ± 6% and the remaining activity at 125 µM worked out at 13%. In addition, on BdUGT5g03300 [1], the “Specific activity (glucoside formation)” value is “≈ 1×10^−3 nmol min^−1 mg^−1” and the “Specific activity with CUL, fold below the value obtained with DON” value is given as about 1000 fold. Besides, at BdUGT5g03300 [1] (25 µM), the “Glucosylation rate of DON, percentage of the control” value amounted to 0.84±0.03%. In addition, on BdUGT5g03300 [1] (setting [3]), the remaining activity at 25 µM is under 1% and the remaining activity at 125 µM was 0.19 ± 0.01%. For the same compound, on BdUGT5g03300 [2], the “Increase of apparent KM with DON” value is about 50 fold; the “K ic of CUL (competitive inhibition, DON as variable substrate)” value was “low µM range”; the “K iu of CUL (uncompetitive inhibition, UDP-glucose as variable substrate)” value was found to be 1.4 µM. Besides, the Ki on BdUGT5g03300 [2] (read-out: K ic of CUL (competitive inhibition, DON as variable substrate)) was under 1000 nM. The Kd on BdUGT5g03300 [2] (read-out: KD of CUL at the acceptor binding site (implied by kinetics)) was about 1000 nM.

What is called Kd is the free concentration of one partner at which half of the binding sites on the other are occupied at equilibrium, for simple one-to-one binding.
